Source: patent US9700046B2, “Herbicidal agents containing aclonifen” (BAYER CROPSCIENCE AG, priority 2012, dated 2017)

Key:
[1] = tested on: Lolium spp. resistant to HRAC group A; test: Greenhouse experiment, post-emergence treatment of resistant ryegrass biotypes (HRAC group A resistant); type: in vivo; conditions: post-emergence (PO, BBCH 11), about 3 weeks after application, dose g of AS/ha: aclonifen 225, pendimethalin 300, diflufenican 30, mixture 225 + 300 + 30, pinoxaden + cloquintocet-mexyl 60 + 15
Protocol: (§1) In the standard design of the test, seeds of various broad-leaved weed and weed grass biotypes (origins) were sown in a 8-13 cm diameter pot filled with natural soil of a standard field soil (loamy silt; non-sterile) and covered with a covering soil layer of about 1 cm. The pots were then cultivated in a greenhouse (12-16 h light, temperature day 20-22° C., night 15-18° C.) until the time of application. The pots were treated on a laboratory track sprayer with spray liquors comprising the compositions according to the invention, mixtures of the prior art or components used individually. Application of the active compounds or active compound combinations formulated as WG, WP, EC or otherwise was carried out at the appropriate growth stages of the plants. The amount of water used for spray application was 100-600 l/ha. After the treatment, the plants were returned to the greenhouses.
(§2) About 3 weeks after the application, the soil action or/and foliar action was assessed visually according to a scale of 0-100% in comparison to an untreated comparative group: 0%=no noticable effect compared to the untreated comparative group; 100%=full effect compared to the untreated comparative group.
(§3) 2. Post-emergence action against weeds: seeds of various broad-leaved weed and weed grass biotypes (origins) were sown in a 8-13 cm diameter pot filled with natural soil of a standard field soil (loamy silt; non-sterile) and covered with a covering soil layer of about 1 cm. […]
(§4) Insofar as herbicidal effects of the compositions according to the invention compared to mixtures of the prior art or compared to components applied individually against economically important mono- and dicotyledonous harmful plants were the center of attention, the synergistic herbicidal activities were calculated using Colby's formula (cf. S. R. Colby; Weeds 15 (1967), 20-22): E^C=(A+B+C)−(A×B+A×C+B×C)/100+(A×B×C)/10000 where: […]
(§5) Δ=difference (%) of the measured value (%) to the expected value (%) (measured value minus expected value). […]

[2] = tested on: Lolium spp. resistant to HRAC group B; test: Greenhouse experiment, post-emergence treatment of resistant ryegrass biotypes (HRAC group B resistant); type: in vivo; conditions: post-emergence (PO, BBCH 11), about 3 weeks after application, dose g of AS/ha: aclonifen 225, pendimethalin 300, diflufenican 30, mixture 225 + 300 + 30, mesosulfuron + iodosulfuron + mefenpyr 15 + 3 + 45
Protocol: as §1, §2, §3, §4, §5

Structure (SMILES) | herbicidal effect (visual assessment, scale 0-100% vs untreated), measured value [1] | herbicidal effect (visual assessment, scale 0-100% vs untreated), measured value [2]
Nc1c([N+](=O)[O-])ccc(Oc2ccccc2)c1Cl [(A) aclonifen, 2-chloro-6-nitro-3-phenoxybenzenamine] | 25% | 50%
CCC(CC)Nc1c([N+](=O)[O-])cc(C)c(C)c1[N+](=O)[O-] [(B) pendimethalin, N-(1-ethylpropyl)-3,4-dimethyl-2,6-dinitrobenzenamine] | 5% | 0%
O=C(Nc1ccc(F)cc1F)c1cccnc1Oc1cccc(C(F)(F)F)c1 [(C) diflufenican, N-(2,4-difluorophenyl)-2-[3-(trifluoromethyl)phenoxy]-3-pyridinecarboxamide] | 10% | 5%
